# Molecular target: P70S6K (T412E mutant) (Homo sapiens (Human), UniProt P23443, T412E)
# Experiment: P70S6K enzyme assay
# Type: biochemical
# Details: 3 nM P70S6K T412E mutant, 24 μM ATP, 1 μM FITC-AHA-AKRRRLSSLRA-OH substrate peptide, 90 min at 25° C.
# Method in brief: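 P70S6K T412E mutant (3 nM) with 24 μM ATP and 1 μM FITC-labelled S6-derived peptide in Hepes pH 7.5, MgCl2, DTT, Brij buffer; 90 min at 25° C, stopped with EDTA. Phosphorylated product and substrate peptides separated by microfluidic mobility shift; IC50 values derived.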
# Sequence of P70S6K (T412E mutant) (P23443 whole entry T412E): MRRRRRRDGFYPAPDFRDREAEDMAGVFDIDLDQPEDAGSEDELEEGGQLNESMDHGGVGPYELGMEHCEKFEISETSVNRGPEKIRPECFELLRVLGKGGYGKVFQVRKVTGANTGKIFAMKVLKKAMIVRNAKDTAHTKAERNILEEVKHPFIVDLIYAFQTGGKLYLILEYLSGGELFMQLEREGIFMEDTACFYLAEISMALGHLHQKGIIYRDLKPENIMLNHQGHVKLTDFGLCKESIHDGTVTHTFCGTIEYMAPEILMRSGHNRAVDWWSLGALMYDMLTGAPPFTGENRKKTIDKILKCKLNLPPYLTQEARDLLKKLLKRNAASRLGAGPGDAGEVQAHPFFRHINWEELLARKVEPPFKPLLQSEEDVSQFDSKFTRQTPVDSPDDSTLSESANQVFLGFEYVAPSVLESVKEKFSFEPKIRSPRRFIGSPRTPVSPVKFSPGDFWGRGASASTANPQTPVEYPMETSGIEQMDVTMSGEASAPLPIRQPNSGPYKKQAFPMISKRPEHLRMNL
row,IC50 [nM],SMILES
1,8700,"Nc1ncnc(N2CCN([C@H](CN3CCC3)c3cccc(F)c3)CC2)c1-c1cn[nH]c1 [Example 87, 6-{4-[(S)-2-Azetidin-1-yl-1-(3-fluoro-phenyl)-ethyl]-piperazin-1-yl}-5-(1H-pyrazol-4-yl)-pyrimidin-4-ylamine]"
2,6700,"N#Cc1ccc([C@@H](CN2CCC2)N2CCN(c3ncnc(N)c3-c3cn[nH]c3)CC2)cc1 [Example 88, 4-((S)-1-{4-[6-Amino-5-(1H-pyrazol-4-yl)-pyrimidin-4-yl]-piperazin-1-yl}-2-azetidin-1-yl-ethyl)-benzonitrile]"
3,2700,"COC(=O)c1ccc([C@@H](CN2CCC2)N2CCN(c3ncnc(N)c3-c3cn[nH]c3)CC2)cc1 [Example 89, 4-((S)-1-{4-[6-Amino-5-(1H-pyrazol-4-yl)-pyrimidin-4-yl]-piperazin-1-yl}-2-azetidin-1-yl-ethyl)-benzoic acid methyl ester]"
4,6300,"N#Cc1cccc([C@H](CN2CCC2)N2CCN(c3ncnc(N)c3-c3cn[nH]c3)CC2)c1 [Example 91, 3-((R)-1-{4-[6-Amino-5-(1H-pyrazol-4-yl)-pyrimidin-4-yl]-piperazin-1-yl}-2-azetidin-1-yl-ethyl)-benzonitrile]"
5,4300,"CS(=O)(=O)c1ccc([C@H](CN2CCC2)N2CCN(c3ncnc(N)c3-c3cn[nH]c3)CC2)cc1 [Example 93, 6-{4-[(R)-2-Azetidin-1-yl-1-(4-methanesulfonyl-phenyl)-ethyl]-piperazin-1-yl}-5-(1H-pyrazol-4-yl)-pyrimidin-4-ylamine]"
6,3500,"COc1ccc(C(CN2CCC2)N2CCN(c3ncnc(N)c3-c3cn[nH]c3)CC2)cc1F (stereo not drawn) [Example 95, 6-{4-[2-Azetidin-1-yl-1-(3-fluoro-4-methoxy-phenyl)-ethyl]-piperazin-1-yl}-5-(1H-pyrazol-4-yl)-pyrimidin-4-ylamine]"
7,140,"COC(=O)c1ccc(C(CN2CCC2)N2CCN(c3ncnc(N)c3-c3ccc(F)cc3)CC2)cc1 (stereo not drawn) [Example 96, 4-(1-{4-[6-Amino-5-(4-fluoro-phenyl)-pyrimidin-4-yl]-piperazin-1-yl}-2-azetidin-1-yl-ethyl)-benzoic acid methyl ester]"
8,3800,"Nc1ncnc(N2CCN(C(CN3CCC3)c3ccc(F)c(C(F)(F)F)c3)CC2)c1-c1cn[nH]c1 (stereo not drawn) [Example 101, 6-{4-[2-Azetidin-1-yl-1-(4-fluoro-3-trifluoromethyl-phenyl)-ethyl]-piperazin-1-yl}-5-(1H-pyrazol-4-yl)-pyrimidin-4-ylamine]"
9,3700,"Nc1ncnc(N2CCN([C@H](CN3CCC3)c3ccc4c(c3)OCCO4)CC2)c1-c1cn[nH]c1 [Example 108, 6-{4-[(S)-2-Azetidin-1-yl-1-(2,3-dihydro-benzo[1,4]dioxin-6-yl)-ethyl]-piperazin-1-yl}-5-(1H-pyrazol-4-yl)-pyrimidin-4-ylamine]"
10,1900,"Cc1cc(C(CN2CCC2)N2CCN(c3ncnc(N)c3-c3cn[nH]c3)CC2)ccc1Cl (stereo not drawn) [Example 109, 6-{4-[2-Azetidin-1-yl-1-(4-chloro-3-methyl-phenyl)-ethyl]-piperazin-1-yl}-5-(1H-pyrazol-4-yl)-pyrimidin-4-ylamine]"
11,450,"COC(=O)c1ccc([C@@H](CN2CCC2)N2CCN(c3ncnc(N)c3-c3ccc(F)cc3)CC2)cc1 [Example 110, 4-((S)-1-{4-[6-Amino-5-(4-fluoro-phenyl)-pyrimidin-4-yl]-piperazin-1-yl}-2-azetidin-1-yl-ethyl)-benzoic acid methyl ester]"
12,190,"COC(=O)c1ccc([C@H](CN2CCC2)N2CCN(c3ncnc(N)c3-c3ccc(F)cc3)CC2)cc1 [Example 111, 4-((R)-1-{4-[6-Amino-5-(4-fluoro-phenyl)-pyrimidin-4-yl]-piperazin-1-yl}-2-azetidin-1-yl-ethyl)-benzoic acid methyl ester]"

# The next lines start with the compound.
row,SMILES,IC50 [nM]
1,"Nc1cc(N2CCN(C(CN3CCCCC3)c3cccc(F)c3)CC2)ncn1 (stereo not drawn) [Example 76, 6-{4-[1-(3-fluorophenyl)-2-piperidin-1-yl-ethyl]-piperazin-1-yl}-pyrimidin-4-ylamine]",> 1000
2,"Nc1ncnc(N2CCN(C(CN3CCCC3)c3ccc(F)cc3)CC2)c1Br (stereo not drawn) [Example 77, 5-Bromo-6{4-[1-(4-fluorophenyl)-2-pyrrolidin-1-yl-ethyl]-piperazin-1-yl}-pyrimidin-4-ylamine]",640
3,"Nc1cc(N2CCN(C(CN3CCCC3)c3ccc(F)cc3)CC2)ncn1 (stereo not drawn) [Example 78, 6-{4-[1-(4-fluorophenyl)-2-pyrrolidin-1-yl-ethyl]-piperazin-1-yl}-pyrimidin-4-ylamine]",> 1000
4,"Nc1cc(N2CCN(C(CN3CCCCC3)c3ccc(F)cc3)CC2)ncn1 (stereo not drawn) [Example 79, 6-{4-[1-(4-fluoro-phenyl)-2-piperidin-1-yl-ethyl]-piperazin-1-yl}-pyrimidin-4-ylamine]",> 1000
5,"NCC(c1ccc(C(F)(F)F)cc1)N1CCN(c2ncnc(N)c2Cl)CC1 (stereo not drawn) [Example 80, 6-{4-[2-Amino-1-(4-trifluoromethyl-phenyl)-ethyl]-piperazin-1-yl}-5-chloro-pyrimidin-4-ylamine]",79
6,"Nc1ncnc(N2CCN(C(CN3CCCC3)c3ccc(F)cc3)CC2)c1Cl (stereo not drawn) [Example 81, 5-Chloro-6{4-[1-(4-fluorophenyl)-2-pyrrolidin-1-yl-ethyl]-piperazin-1-yl}-pyrimidin-4-ylamine]",> 1000
7,"Nc1ncnc(N2CCN(C(CN3CCC3)c3cccc(F)c3)CC2)c1-c1ccc(F)cc1 (stereo not drawn) [Example 90, 6-{4-[2-Azetidin-1-yl-1-(3-fluoro-phenyl)-ethyl]-piperazin-1-yl}-5-(4-fluoro-phenyl)-pyrimidin-4-ylamine]",600
8,"COc1ccc(C(CN2CCC2)N2CCN(c3ncnc(N)c3-c3ccc(F)cc3)CC2)cc1F (stereo not drawn) [Example 92, 6-{4-[2-Azetidin-1-yl-1-(3-fluoro-4-methoxy-phenyl)-ethyl]-piperazin-1-yl}-5-(4-fluoro-phenyl)-pyrimidin-4-ylamine]",300
9,"Nc1ncnc(N2CCN([C@@H](CN3CCC3)c3ccc4c(c3)OCCO4)CC2)c1-c1ccc(F)cc1 [Example 94, 6-{4-[(R)-2-Azetidin-1-yl-1-(2,3-dihydro-benzo[1,4]dioxin-6-yl)-ethyl]-piperazin-1-yl}-5-(4-fluoro-phenyl)-pyrimidin-4-ylamine]",1600
10,"N#Cc1cccc([C@@H](CN2CCC2)N2CCN(c3ncnc(N)c3-c3cn[nH]c3)CC2)c1 [Example 97, 3-((S)-1-{4-[6-Amino-5-(1H-pyrazol-4-yl)-pyrimidin-4-yl]-piperazin-1-yl}-2-azetidin-1-yl-ethyl)-benzonitrile]",3700
11,"Nc1ncnc(N2CCN([C@H](CN3CCC3)c3ccc4c(c3)OCCO4)CC2)c1-c1ccc(F)cc1 [Example 98, 6-{4-[(S)-2-Azetidin-1-yl-1-(2,3-dihydro-benzo[1,4]dioxin-6-yl)-ethyl]-piperazin-1-yl}-5-(4-fluoro-phenyl)-pyrimidin-4-ylamine]",260
12,"Nc1ncnc(N2CCN(C(CN3CCC3)c3cccc(C(F)(F)F)c3F)CC2)c1-c1cn[nH]c1 (stereo not drawn) [Example 99, 6-{4-[2-Azetidin-1-yl-1-(2-fluoro-3-trifluoromethyl-phenyl)-ethyl]-piperazin-1-yl}-5-(1H-pyrazol-4-yl)-pyrimidin-4-ylamine]",670
13,"Cc1ccc(C(CN2CCC2)N2CCN(c3ncnc(N)c3-c3cn[nH]c3)CC2)c(F)c1F (stereo not drawn) [Example 100, 6-{4-[2-Azetidin-1-yl-1-(2,3-difluoro-4-methyl-phenyl)-ethyl]-piperazin-1-yl}-5-(1H-pyrazol-4-yl)-pyrimidin-4-ylamine]",900
14,"Nc1ncnc(N2CCN([C@H](CN3CCC3)c3cccc(F)c3)CC2)c1-c1ccc(F)cc1 [Example 102, 6-{4-[(S)-2-Azetidin-1-yl-1-(3-fluoro-phenyl)-ethyl]-piperazin-1-yl}-5-(4-fluoro-phenyl)-pyrimidin-4-ylamine]",1400
15,"Nc1ncnc(N2CCN([C@@H](CN3CCC3)c3cccc(F)c3)CC2)c1-c1ccc(F)cc1 [Example 103, 6-{4-[(R)-2-Azetidin-1-yl-1-(3-fluoro-phenyl)-ethyl]-piperazin-1-yl}-5-(4-fluoro-phenyl)-pyrimidin-4-ylamine]",920
16,"COc1ccc([C@H](CN2CCC2)N2CCN(c3ncnc(N)c3-c3ccc(F)cc3)CC2)cc1F [Example 104, 6-{4-[(R)-2-Azetidin-1-yl-1-(3-fluoro-4-methoxy-phenyl)-ethyl]-piperazin-1-yl}-5-(4-fluoro-phenyl)-pyrimidin-4-ylamine]",920
17,"COc1ccc([C@@H](CN2CCC2)N2CCN(c3ncnc(N)c3-c3ccc(F)cc3)CC2)cc1F [Example 105, 6-{4-[(S)-2-Azetidin-1-yl-1-(3-fluoro-4-methoxy-phenyl)-ethyl]-piperazin-1-yl}-5-(4-fluoro-phenyl)-pyrimidin-4-ylamine]",640
18,"N#Cc1ccc(C(CN2CCC2)N2CCN(c3ncnc(N)c3-c3ccc(F)cc3)CC2)cc1 (stereo not drawn) [Example 106, 4-(1-{4-[6-Amino-5-(4-fluoro-phenyl)-pyrimidin-4-yl]-piperazin-1-yl}-2-azetidin-1-yl-ethyl)-benzonitrile]",320
19,"Nc1ncnc(N2CCN([C@@H](CN3CCC3)c3ccc4c(c3)OCCO4)CC2)c1-c1cn[nH]c1 [Example 107, 6-{4-[(R)-2-Azetidin-1-yl-1-(2,3-dihydro-benzo[1,4]dioxin-6-yl)-ethyl]-piperazin-1-yl}-5-(1H-pyrazol-4-yl)-pyrimidin-4-ylamine]",5200
20,"Nc1ncnc(N2CCN(C(CCN3CCC3)c3ccc(Cl)cc3)CC2)c1-c1ccc(F)cc1 (stereo not drawn) [Example 112, 6-{4-[3-Azetidin-1-yl-1-(4-chloro-phenyl)-propyl]-piperazin-1-yl}-5-(4-fluoro-phenyl)-pyrimidin-4-ylamine]",460
21,"Nc1ncnc(N2CCN(C(CCCN3CCC3)c3ccc(Cl)cc3)CC2)c1-c1ccc(F)cc1 (stereo not drawn) [Example 113, 6-{4-[4-Azetidin-1-yl-1-(4-chloro-phenyl)-butyl]-piperazin-1-yl}-5-(4-fluoro-phenyl)-pyrimidin-4-ylamine]",> 1000

# Source: patent US9321760B2 (Merck Patent GmbH, priority 2011, dated 2016)
